Key:
[1] = system: EL-4 tumours; test: Treatment of large established EL-4 tumours with CAM gene transfer, DMXAA/FAA or timed combination; format: in vivo, C57BL/6 mice; conditions: large EL-4 tumours 0.6-0.8 cm; systemic (i.p.) optimal dose monotherapy; over a period of 3 weeks
Description: Female C57BL/6 mice, 6-9 weeks old, were obtained from the Animal Resource Unit, School of Medicine and Health Science, University of Auckland, Auckland. The EL-4 thymic lymphoma and mouse Lewis lung carcinoma cells (LLC) (H-2b) were purchased from the American Type Culture Collection (Rockville, Md). These cell lines were cultured in vitro at 37° C. in DMEM medium (Gibco BRL), supplemented with 10% foetal calf serum, 50 U/ml penicillin/streptomycin, 2 mM L-glutamine, 1 mM pyruvate.
Experimental Tumour Model.
Administration FAA and DMXAA Analogues. FAA was gifted from the Department of Health & Human Services, Drug Synthesis & Chemistry laboratory, National Cancer Institute, Bethesda, USA. The sodium salt of DMXAA was synthesized in the Auckland Cancer Society Research Centre, School of Medicine and Health Science, University of Auckland. Solutions of FAA and DMXAA in 5% (w/v) sodium bicarbonate and water, respectively, were prepared fresh for each experiment and protected from light. FAA and DMXAA were injected i.p. at 300 mg/Kg and 25 mg/Kg of body weight in a volume of 0.01 ml/g body weight, respectively.
Gene Transfer of B7.1. […]

[2] = system: EL-4 target cells; test: Measurement of anti-tumour CTL activity of splenocytes from treated mice; format: cell-based; conditions: 21 days following gene transfer; combinations versus B7.1 monotherapy
Description: Measurement of the Generation of Anti-Tumour CTL. Splenocytes were harvested 21, and 42 days following initial gene transfer, and 22 days following a parental tumour challenge. They were incubated at 37° C. with EL-4 target cells in graded E:T ratios in 96-well round-bottom plates. After a 4-hour incubation, 50 μl of supernatant was collected, and lysis was measured using the Cyto Tox 96 Assay Kit (Promega, Madison, Wis., USA). Background controls for non-specific target and effector cell lysis were included. After background subtraction, percentage of cell lysis was calculated using the formula: 100×(experimental-spontaneous effector-target spontaneous target/maximum target-spontaneous target).

[3] = system: established EL-4 tumours; test: Adoptive transfer of anti-tumour splenocytes from treated mice; format: in vivo; conditions: 2×10^8 splenocytes from treated mice; recipients with EL-4 tumours up to 0.8 cm
Description: Adoptive Transfer of Anti-Tumour CTL. Adoptive transfer of anti-tumour splenocytes was as described previously (Kanwar et al, 1999). Briefly, splenocytes obtained from mice 21 days following therapy were resuspended in Hank's balanced salt solution containing 1% FCS, and stimulated with 5 μg/ml PHA and 100 U/ml recombinant mouse IL-2 for 4 to 5 days. Animals bearing tumours 0.6 cm in diameter received both intratumoral and i.p. injections of 2×10^8 cultured splenocytes.

[4] = system: EL-4 tumour sections; test: In situ detection of apoptotic and necrotic cells (TUNEL / propidium iodide); format: in vivo, mice; conditions: tumour sections 7, 14, 21 days after treatment; TUNEL and PI
Description: In Situ Detection of Apoptotic Cells. Tumours were excised and immediately frozen in dry ice, stored at −70° C., and serial sections of 6 μm thickness prepared. TUNEL staining was performed using an In Situ apoptosis detection kit from Boehringer Mannheim, Germany. Briefly, frozen sections were fixed with paraformaldehyde solution (4% in PBS, pH 7.4), and permeabilized with a solution containing 0.1% Triton X-100 and 0.1% sodium citrate. After washing they were incubated with 20 μl TUNEL reagent for 60 min at 37° C., and examined by fluorescence microscopy. Some slides were counterstained with propidium iodide (PI; Sigma, Calif., USA) to distinguish necrotic cells from those undergoing apoptosis. Adjacent sections were counterstained with haematoxylin and eosin and mounted. The total number of apoptotic or necrotic cells were counted. The apototic index (AI) or necrotic index (NI) was calculated as follows: AI or NI=number of apoptotic or necrotic cells×100/total number of nucleated cells.

[5] = system: heat shock protein 70; test: Immunohistology of hsp70 expression in tumours; format: in vivo, mice; conditions: 7 days following administration
Description: Immunohistology. Tumours were excised on the seventh day following administration of therapeutic agents and controls, immediately frozen in dry ice, stored at −70° C. in isopentane, and sections of 10 μm thickness prepared. Sections were mounted on poly L-lysine-coated slides, and endogenous peroxidases blocked by incubating slides for 30 min in 0.3% H2O2 in methanol. Sections were stained with mouse anti-Hsp70 mAb (SPA-810 antibody; StressGen Biotechnologies Corp., Victoria, Canada) using a mouse-on-mouse immunodetection ABC Elite peroxidase kit (Vector Laboratories, Burlingame, Calif., USA). They were developed with SIGMA FAST DAB (3,3′-diaminobenzidine tetrahydrochloride) with metal enhancer CoCl2 tablets, and counterstained with haematoxylin and eosin. As a control, the primary antibody was substituted with rat IgG (Sigma, USA).

| Compound | tumour diameter to which tumours shrank [1] | anti-tumour CTL activity of splenocytes [2] | anti-tumour effect of adoptively transferred splenocytes [3] | apoptotic versus necrotic tumour cells [4] | hsp70 expression in tumours [5] |
| --- | --- | --- | --- | --- | --- |
| flavone acetic acid [FAA] | 0.2-0.4 cm | very poor effectors | – | – | – |
| Cc1ccc2c(=O)c3cccc(CC(=O)O)c3oc2c1C [DMXAA, 5,6-dimethylxanthenone-4-acetic acid] | 0.1-0.2 cm | very poor effectors | no detectable anti-tumour activity | predominance of necrotic cells | consistently found upregulated on tumour cells either surrounding or within the vicinity of blood vessels |

From patent US20040086498A9, “Cancer therapy” (priority 1999, published 2004)
